Test results published in patent US10166218B2, “3-(1H-indol-2-yl)-1H-pyrazolo[3,4-C]pyridines and therapeutic uses thereof” (Samumed, LLC, priority 2015, dated 2019).

Legend:
[1] = test system: primary human mesenchymal stem cells (hMSCs); experiment: Induction of chondrogenesis in primary human mesenchymal stem cells (chondrogenic nodules); format: cell-based; conditions: 144 h, 6 days; for EC50: concentration required to induce 50% levels of chondrogenesis of TGF-β3 positive control, read-out: Conc (nM) of 50% TGF-β3 activity; for Emax: nodules, relative to TGF-β3 (10 ng/mL) positive control, read-out: Max. Activity as % TGF-β3 activity
Protocol: Representative compounds were screened using primary human mesenchymal stem cells (hMSCs) to determine their ability to induce chondrogenesis (process by which cartilage is developed).
Primary human mesenchymal stem cells (hMSCs) were purchased from Lonza (Walkersville, Md.) and expanded in Mesenchymal Stem Cell Growth Media (Lonza). Cells between passage 3 and 6 were used for the experiments.
Each compound was dissolved in DMSO as a 10 mM stock and used to prepare compound source plates. Serial dilution (1:3, 6-point dose-response curves from 2700 nM to 10 nM) and compound transfer was performed using the ECHO 550 (Labcyte, Sunnyvale, Calif.) into 96-well clear bottom assay plates (Greiner Bio-One) with appropriate DMSO backfill for a final DMSO concentration of 0.03%. hMSCs were plated at 20,000 cells/well in 250 μL/well Incomplete Chondrogenic Induction Medium (Lonza; DMEM, dexamethasone, ascorbate, insulin-transferrin-selenium [ITS supplement], gentamycin-amphotericin [GA-1000], sodium pyruvate, proline and L-glutamine). TGF-β3 (10 ng/mL) was used as a positive control for differentiation while negative control wells were treated with 75 nL DMSO for normalization and calculating EC50 values. Cells were incubated at 37° C. and 5% CO2 for 6 days. To image chondrogenic nodules, the cells were fixed using 4% formaldehyde (Electron Microscopy Sciences), and stained with 2 μg/mL Rhodamine B (Sigma-Aldrich) and 20 μM Nile Red (Sigma-Aldrich) [Johnson K., et. al, A Stem Cell-Based Approach to Cartilage Repair, Science, (2012), 336(6082), 717-721]. The nodules imaged (4 images per well at 4× magnification) by excitation at 531 nm and emission at 625 nm and quantified using the CellInsight CX5 (Thermo Scientific). Number of nodules in each well was normalized to the average of 3 DMSO treated wells on the same plate using Excel (Microsoft Inc.). The normalized averages (fold change over DMSO) of 3 replicate wells for each compound concentration were calculated. Due to solubility limitations of some of the compounds, curve fitting was incomplete leading to inaccurate EC50 determinations.
Using TGF-β3 as a positive control, the concentration of representative compounds required to induce 50% levels of chondrogenesis is reported. In addition, the maximum activity of each compound and the respective dose that each compound reached maximum chondrogenesis activity is reported.

IL-6 (THP-1 cells) = experiment: Inhibition of IL-6 in LPS-stimulated THP-1 human monocyte cells (HTRF); format: cell-based; conditions: for EC50: inhibition of IL-6 in LPS-stimulated THP-1 cells, HTRF, 10-point dose-response starting from 10 μM; for inhibition at 10 µM: IL-6 assay in LPS-stimulated THP-1 cells, given only where EC50 >10 μM, meaning not given (top concentration 10 μM), read-out: percentage given in parentheses after EC50 >10
How it was run: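 Readout is the 665/620 nm HTRF ratio for secreted IL-6, normalized to DMSO wells, with EC50 from a variable-slope four-parameter fit, or % inhibition at 10 μM when above 10 μM. Cells (1% FBS, 24 h beforehand) got compound for 2 h, then LPS 500 ng/mL for 22 h at 37° C; top dose 10 μM, 0.1% DMSO.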

| Compound | EC50 [1] | EC50 (IL-6 (THP-1 cells)) | Emax [1] | inhibition at 10 µM (IL-6 (THP-1 cells)) |
| --- | --- | --- | --- | --- |
| Fc1ccc(-c2cccc3[nH]c(-c4n[nH]c5cnc(-c6cncc(CN7CCCC7)c6)cc45)cc23)cc1 [Compound 42, 3-(4-(4-Fluorophenyl)-1H-indol-2-yl)-5-(5-(pyrrolidin-1-ylmethyl)pyridin-3-yl)-1H-pyrazolo[3,4-c]pyridine] | 300 nM | 3810 nM | 164% | – |
| Nc1cncc(-c2cc3c(-c4cc5c(-c6ccccc6F)cccc5[nH]4)n[nH]c3cn2)c1 [Compound 59, 5-(3-(4-(2-Fluorophenyl)-1H-indol-2-yl)-1H-pyrazolo[3,4-c]pyridin-5-yl) pyridin-3-amine] | 30 nM | 968 nM | 94% | – |
| Fc1ccccc1-c1cccc2[nH]c(-c3n[nH]c4cnc(-c5cncc(CN6CCCCC6)c5)cc34)cc12 [Compound 71, 3-(4-(2-Fluorophenyl)-1H-indol-2-yl)-5-(5-(piperidin-1-ylmethyl)pyridin-3-yl)-1H-pyrazolo[3,4-c]pyridine] | – | 7660 nM | 18% | – |
| O=C(Nc1cncc(-c2cc3c(-c4cc5c(-c6cccnc6)cccc5[nH]4)n[nH]c3cn2)c1)c1ccccc1 [Compound 95, N-(5-(3-(4-(Pyridin-3-yl)-1H-indol-2-yl)-1H-pyrazolo[3,4-c]pyridin-5-yl)pyridin-3-yl)benzamide] | 100 nM | 727 nM | 236% | – |
| c1cncc(-c2cccc3[nH]c(-c4n[nH]c5cnc(-c6cncc(CN7CCCC7)c6)cc45)cc23)c1 [Compound 98, 3-(4-(Pyridin-3-yl)-1H-indol-2-yl)-5-(5-(pyrrolidin-1-ylmethyl)pyridin-3-yl)-1H-pyrazolo[3,4-c]pyridine] | – | 1520 nM | 22% | – |
| Nc1cncc(-c2cc3c(-c4cc5c(-c6ccccn6)cccc5[nH]4)n[nH]c3cn2)c1 [Compound 143, 5-(3-(4-(Pyridin-2-yl)-1H-indol-2-yl)-1H-pyrazolo[3,4-c]pyridin-5-yl) pyridin-3-amine] | 300 nM | 549 nM | 118% | – |
| Cc1ccncc1-c1cc2c(-c3cc4c(-c5ccccn5)cccc4[nH]3)n[nH]c2cn1 [Compound 145, 5-(4-Methylpyridin-3-yl)-3-(4-(pyridin-2-yl)-1H-indol-2-yl)-1H-pyrazolo [3,4-c]pyridine] | 30 nM | 2830 nM | 90% | – |
| CN(C)Cc1cncc(-c2cc3c(-c4cc5c(-c6ccccn6)cccc5[nH]4)n[nH]c3cn2)c1 [Compound 153, N,N-Dimethyl-1-(5-(3-(4-(pyridin-2-yl)-1H-indol-2-yl)-1H-pyrazolo[3,4-c]pyridin-5-yl)pyridin-3-yl)methanamine] | 30 nM | 989 nM | 75% | – |
| CCCCC(=O)Nc1cncc(-c2cc3c(-c4cc5c(-c6ccccn6)cccc5[nH]4)n[nH]c3cn2)c1 [Compound 159, N-(5-(3-(4-(Pyridin-2-yl)-1H-indol-2-yl)-1H-pyrazolo[3,4-c]pyridin-5-yl)pyridin-3-yl)pentanamide] | 900 nM | 1560 nM | 84% | – |
| CC(C)C(=O)Nc1cncc(-c2cc3c(-c4cc5c(N6CCN(C)CC6)cccc5[nH]4)n[nH]c3cn2)c1 [Compound 233] | – | 753 nM | 36% | – |
| O=C(Nc1cncc(-c2cc3c(-c4cc5ccccc5[nH]4)n[nH]c3cn2)c1)c1ccccc1 [Compound 263, N-(5-(3-(1H-Indol-2-yl)-1H-pyrazolo[3,4-c]pyridin-5-yl)pyridin-3-yl) benzamide] | – | 1190 nM | 122% | – |
| c1cc(-c2ccoc2)c2cc(-c3n[nH]c4cnc(-c5cncc(CN6CCCCC6)c5)cc34)[nH]c2c1 [Compound 323, 3-(4-(Furan-3-yl)-1H-indol-2-yl)-5-(5-(piperidin-1-ylmethyl)pyridin-3-yl)-1H-pyrazolo[3,4-c]pyridine] | – | 3490 nM | 85% | – |
| c1cc(N2CCCCC2)c2cc(-c3n[nH]c4cnc(-c5cncc(OC6CCCCC6)c5)cc34)[nH]c2c1 [Compound 635, 5-(5-(Cyclohexyloxy)pyridin-3-yl)-3-(4-(piperidin-1-yl)-1H-indol-2-yl)-1H-pyrazolo[3,4-c]pyridine] | – | > 10000 nM | – | 0% |
| c1cc(-c2ccoc2)c2cc(-c3n[nH]c4cnc(-c5cn[nH]c5)cc34)[nH]c2c1 [Compound 711, 3-(4-(Furan-3-yl)-1H-indol-2-yl)-5-(1H-pyrazol-4-yl)-1H-pyrazolo[3,4-c]pyridine] | – | > 10000 nM | – | 0% |
| c1csc(-c2cccc3[nH]c(-c4n[nH]c5cnc(C6CCNCC6)cc45)cc23)c1 [Compound 725, 5-(Piperidin-4-yl)-3-(4-(thiophen-2-yl)-1H-indol-2-yl)-1H-pyrazolo[3,4-c]pyridine] | – | > 10000 nM | – | 45.4% |
| CN(C)CCOc1cncc(-c2cc3c(-c4cc5ncccc5[nH]4)n[nH]c3cn2)c1 [Compound 1029, 2-((5-(3-(1H-Pyrrolo[3,2-b]pyridin-2-yl)-1H-pyrazolo[3,4-c]pyridin-5-yl)pyridin-3-yl)oxy)-N,N-dimethylethan-1-amine] | – | 2450 nM | – | – |

Now those with a lower EC50 (IL-6 (THP-1 cells)), led by results:

| EC50 [1] | EC50 (IL-6 (THP-1 cells)) | Compound | Emax [1] | inhibition at 10 µM (IL-6 (THP-1 cells)) |
| --- | --- | --- | --- | --- |
| 900 nM | 399 nM | CCNCc1cncc(-c2cc3c(-c4cc5c(-c6ccc(F)cc6)cccc5[nH]4)n[nH]c3cn2)c1 [Compound 34, N-((5-(3-(4-(4-Fluorophenyl)-1H-indol-2-yl)-1H-pyrazolo[3,4-c]pyridin-5-yl)pyridin-3-yl)methyl)ethanamine] | 268% | – |
| – | 74 nM | CCC(=O)Nc1cncc(-c2cc3c(-c4cc5c(-c6cccnc6)cccc5[nH]4)n[nH]c3cn2)c1 [Compound 85, N-(5-(3-(4-(Pyridin-3-yl)-1H-indol-2-yl)-1H-pyrazolo[3,4-c]pyridin-5-yl)pyridin-3-yl)propionamide] | 101% | – |
| 30 nM | 109 nM | c1cncc(-c2cc3c(-c4cc5c(-c6cccnc6)cccc5[nH]4)n[nH]c3cn2)c1 [Compound 88, 5-(Pyridin-3-yl)-3-(4-(pyridin-3-yl)-1H-indol-2-yl)-1H-pyrazolo[3,4-c]pyridine] | 141% | – |
| 10 nM | 181 nM | CC(C)C(=O)Nc1cncc(-c2cc3c(-c4cc5c(-c6cccnc6)cccc5[nH]4)n[nH]c3cn2)c1 [Compound 93, N-(5-(3-(4-(Pyridin-3-yl)-1H-indol-2-yl)-1H-pyrazolo[3,4-c]pyridin-5-yl)pyridin-3-yl)isobutyramide] | 201% | – |
| 100 nM | 226 nM | O=C(Nc1cncc(-c2cc3c(-c4cc5c(-c6cccnc6)cccc5[nH]4)n[nH]c3cn2)c1)C1CC1 [Compound 104, N-(5-(3-(4-(Pyridin-3-yl)-1H-indol-2-yl)-1H-pyrazolo[3,4-c]pyridin-5-yl)pyridin-3-yl)cyclopropanecarboxamide] | 308% | – |
| – | 424 nM | c1ccc2[nH]c(-c3n[nH]c4cnc(-c5cncc(CN6CCCC6)c5)cc34)cc2c1 [Compound 266, 3-(1H-Indol-2-yl)-5-(5-(pyrrolidin-1-ylmethyl)pyridin-3-yl)-1H-pyrazolo [3,4-c]pyridine] | 138% | – |
| 100 nM | 91 nM | CN(C)CCNc1cc(F)cc(-c2cccc3[nH]c(-c4n[nH]c5cnc(-c6cncc(N)c6)cc45)cc23)c1 [Compound 451, N^1-(3-(2-(5-(5-Aminopyridin-3-yl)-1H-pyrazolo[3,4-c]pyridin-3-yl)-1H-indol-4-yl)-5-fluorophenyl)-N^2,N^2-dimethylethane-1,2-diamine] | 180% | – |
| – | 344 nM | Cn1cc(-c2cc3c(-c4cc5ncccc5[nH]4)n[nH]c3cn2)cn1 [Compound 1022, 5-(1-Methyl-1H-pyrazol-4-yl)-3-(1H-pyrrolo[3,2-b]pyridin-2-yl)-1H-pyrazolo[3,4-c]pyridine] | – | – |
